Our source for the CC50, IC50 and SI values is patent publication US8106196B2, “Dihydropyrimidine compounds and their uses in manufacture of a medicament for treatment and prevention of viral diseases” (Beijing Molecule Science and Technology Co., Ltd, priority 2007, dated 2012).

Some results are limits rather than exact numbers.

Series [1] in a line: Cytotoxicity in HepG 2.2.15 cells (cell morphology under microscope after 8 days, Reed & Muench). The conditions noted are these: human, pathological changes after 8 days, read-out: TC50 (half-maximum toxic concentration). It counts as cell-based. As for the experimental part:
(§1) The antiviral tests were carried out in 96-well microtiter plates. Only growth medium and HepG 2.2.15 cells were added to the first vertical row of the plate as a blank control.
Stock solutions of the test compounds (50 mM) were first dissolved in DMSO, and further dilutions were prepared in the growth medium of HepG 2.2.15 cell. The compounds according to the present invention, usually in a test concentration of 100 μg/ml (1st test concentration), were pipetted into each well of the second vertical test row of the microtiter plate and subsequently diluted with growth medium plus 2% of foetal calf serum (volume 25 μl) by 2 fold each time, up to 2^10-fold. […]
Substances-induced cytotoxic or cytostatic changes in HepG 2.2.15 cells were determined as changes in the cell morphology, for example under an optical microscope. […] The average degree of the pathological change and percent inhibition at each concentration were calculated, and a half-maximum toxic concentration (TC50) and a maximum non-toxic concentration TC0 were determined according to Reed & Muench methods. […]
The cytotoxicity and antiviral activity of the compounds according to the present invention were determined by the methods as described above, and the results were shown in Table 1.

The next series concerns HBV DNA. As to the kind of experiment: Antiviral activity: inhibition of HBV DNA in supernatant of HepG 2.2.15 cells (dot blot hybridization). It counts as cell-based, hepatitis B virus (HBV). Particulars: for IC50: Hepatitis B virus, HepG2.2.15, 192 h, HepG 2.2.15 cells, 8 days incubation, hepatitis B-specific band reduced by 50% vs untreated sample, read-out: IC50 (half-maximum inhibitory concentration, HBV DNA); for SI: selectivity index, from TC50 and IC50 in HepG 2.2.15 cells. Here is the method: The antiviral activity of the compounds according to the present invention was determined by the methods described by Sells et al. (M. A. Sells, M. L. Chen, g. Acs, Proc. Natl. Acad. Sci., 1987, 84, 1005-1009) and Korba et al., (B. E. Korba, J. L. Gerin, Antiviral Research, 1992, 19. 55-70).
as §1
Stock solutions of the test compounds (50 mM) were first dissolved in DMSO, and further dilutions were prepared in the growth medium of HepG 2.2.15 cell. The compounds according to the present invention, usually in a test concentration of 100 μg/ml (1st test concentration), were pipetted into each well of the second vertical test row of the microtiter plate and subsequently diluted with growth medium plus 2% of foetal calf serum (volume 25 μl) by 2 fold each time, up to 2^10-fold.
225 μl of a HepG 2.2.15 cell suspension (5×10^4 cells/ml) in growth medium plus 2% foetal calf serum were then added to each well of the 96-well microtiter plate.
The test mixture was incubated at 37° C., 5% CO2 for 4 days. The supernatant was subsequently siphoned off and discarded, and 225 μl of freshly prepared growth medium were added to each well. The compounds according to the present invention were added again in a volume 25 μl. The mixture were incubated from another 4 days.
The supernatants were subsequently harvested and siphoned in vacuum onto 96-well dot blot chambers covered with a nylon membrane (in accordance with the instructions of the manufacturer). […]
The viral DNA of the treated HepG 2.2.15 cells on the nylon filter membrane was usually determined using non-radioactive digoxigenin-labelled hepatitis B-specific DNA probes which were in each case labelled with digoxigenin, purified and used for hybridization in accordance with the instructions of the manufacturer.
Briefly speaking, the prehybridization and hybridization were carried out in 5×SSC, 1× blocking agent, 0.1% N-lauroylsacosine, 0.02% SDS and 100 μg of DNA from herring sperm. […] The filler membrane was subsequently washed and the antibodies against digoxigenin of HBV DNA were determined.
The digoxigenin-labeled DNA was detected immunologically in accordance with the instructions of the manufacturer.
Briefly speaking, the filler membrane were washed and prehybridized with a blocking agent (in accordance with the instructions of the manufacturer). […] The chemiluminescent signals of the Hepatitis B-specific DNA were measured by exposing of the filters to an X-ray film (incubation for 10 minutes to 2 hours depending on the signal strength) to determine the half-maximum inhibitory concentration (IC50). […]

Turning to `COC(=O)C1=C(C)NC(c2cccs2)=NC1c1ccc(F)cc1Cl` (stereo not drawn) [Example 1, methyl 2-(thien-2-yl)-4-(2-chloro-4-fluorophenyl)-6-methyl-1,4-dihyropyrimidin-5-carboxylate], the CC50 at 8 days in series [1] worked out at 1100 µM. In the series with HBV DNA, the IC50 came out at 0.007 µM and the SI is >10^5.
Consider `COC(=O)C1=C(C)NC(c2cccs2)=NC1c1ccccc1` (stereo not drawn) [Example 4, methyl 2-(thien-2-yl)-4-phenyl-6-methyl-1,4-dihyropyrimidin-5-carboxylate], for which the CC50 at 8 days in series [1] was found to be 105 µM. Besides, in the series on HBV DNA, the IC50 is 29.6 µM and the SI was found to be 3.56.
